# Source: ChEMBL document CHEMBL1125071, “Quinazoline antifolate thymidylate synthase inhibitors: alkyl, substituted alkyl, and aryl substituents in the C2 position” (J Med Chem, 1990)
# Columns and labels:
# L1210 = test: Concentration required to inhibit 50 percent growth of L1210 mouse leukemia cells; type: functional, cell-based
# [1] = Solubility in […] M aqueous NaH2PO4 buffer at pH 7.0 and 25 degree C; type: physicochemical; settings: 0.92 M aqueous NaH2PO4 buffer
# Thymidylate synthase = Thymidylate synthase (Mus musculus, UniProt P07607); test: Concentration required for in vitro inhibition of thymidylate synthase
# [2] = pKa of nitrogen -1(N1) of the compound; type: physicochemical
# [3] = pKa of nitrogen -3(N3) of the compound; type: physicochemical
# [4] = pKa of nitrogen -1(N1) of the compound; too low to measure accurately; type: physicochemical
# Sequence of Thymidylate synthase (P07607 whole entry): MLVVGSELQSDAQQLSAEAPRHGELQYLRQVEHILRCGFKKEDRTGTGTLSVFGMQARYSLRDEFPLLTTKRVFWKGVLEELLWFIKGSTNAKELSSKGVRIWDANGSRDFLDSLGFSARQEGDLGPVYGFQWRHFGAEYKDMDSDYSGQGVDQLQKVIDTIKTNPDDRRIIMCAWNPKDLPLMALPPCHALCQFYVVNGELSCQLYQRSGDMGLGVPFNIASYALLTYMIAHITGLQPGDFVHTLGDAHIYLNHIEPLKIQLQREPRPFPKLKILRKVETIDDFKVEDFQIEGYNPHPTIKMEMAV
Structure (SMILES),IC50 (L1210) [nM],IC50 (Thymidylate synthase) [nM],other results
C#CCN(Cc1ccc2nc(CF)[nH]c(=O)c2c1)c1ccc(C(=O)N[C@@H](CCC(=O)O)C(=O)O)cc1,370,,
CCN(Cc1ccc2nc(CO)[nH]c(=O)c2c1)c1ccc(C(=O)N[C@@H](CCC(=O)O)C(=O)O)cc1,16000,,
C#CCN(Cc1ccc2nc(CNC(C)=O)[nH]c(=O)c2c1)c1ccc(C(=O)N[C@@H](CCC(=O)O)C(=O)O)cc1,125000,,
C#CCN(Cc1ccc2nc(C)[nH]c(=O)c2c1)c1ccc(C(=O)N[C@@H](CCC(=O)O)C(=O)O)cc1,90,,solubility [1]: 3200 µg/mL
C#CCN(Cc1ccc2nc(C(C)C)[nH]c(=O)c2c1)c1ccc(C(=O)N[C@@H](CCC(=O)O)C(=O)O)cc1,48000,,
C#CCN(Cc1ccc2nc(-c3ccccc3)[nH]c(=O)c2c1)c1ccc(C(=O)N[C@@H](CCC(=O)O)C(=O)O)cc1,> 100000,,
C#CCN(Cc1ccc2nc(CC)[nH]c(=O)c2c1)c1ccc(C(=O)N[C@@H](CCC(=O)O)C(=O)O)cc1,2500,,
Cc1nc2ccc(CNc3ccc(C(=O)N[C@@H](CCC(=O)O)C(=O)O)cc3)cc2c(=O)[nH]1,70,4500,
O=C(O)CC[C@H](NC(=O)c1ccc(N(CCF)Cc2ccc3nc(CF)[nH]c(=O)c3c2)cc1)C(=O)O,1200,,
CCc1nc2ccc(CNc3ccc(C(=O)N[C@@H](CCC(=O)O)C(=O)O)cc3)cc2c(=O)[nH]1,3200,20000,
Cc1nc2ccc(CN(CCS)c3ccc(C(=O)N[C@@H](CCC(=O)O)C(=O)O)cc3)cc2c(=O)[nH]1,> 100000,1760,
C=CCN(Cc1ccc2nc(C)[nH]c(=O)c2c1)c1ccc(C(=O)N[C@@H](CCC(=O)O)C(=O)O)cc1,170,480,
Cc1nc2ccc(CN(CCF)c3ccc(C(=O)N[C@@H](CCC(=O)O)C(=O)O)cc3)cc2c(=O)[nH]1,400,240,
C#CCN(Cc1ccc2nc(C(F)F)nc(O)c2c1)c1ccc(C(=O)N[C@@H](CCC(=O)O)C(=O)O)cc1,24000,,
Cc1ccc2nc(N)nc(O)c2c1,,,pKa [2]: 4.2; pKa [3]: 9.4
CCN(Cc1ccc2nc(C)[nH]c(=O)c2c1)c1ccc(C(=O)N[C@@H](CCC(=O)O)C(=O)O)cc1,360,170,
Cc1ccc2nc(C(F)F)nc(O)c2c1,,,pKa [4]: < 2; pKa [3]: 7.2
COCCN(Cc1ccc2nc(C)[nH]c(=O)c2c1)c1ccc(C(=O)N[C@@H](CCC(=O)O)C(=O)O)cc1,40000,16300,
C#CCN(Cc1ccc2nc[nH]c(=O)c2c1)c1ccc(C(=O)N[C@@H](CCC(=O)O)C(=O)O)cc1,400,,

Structure (SMILES),IC50 (L1210) [nM],IC50 (Thymidylate synthase) [nM],other results
C#CCN(Cc1ccc2nc(N)[nH]c(=O)c2c1)c1ccc(C(=O)N[C@@H](CCC(=O)O)C(=O)O)cc1,3400,,solubility [1]: 70 µg/mL
Cc1nc2ccc(CN(CCBr)c3ccc(C(=O)N[C@@H](CCC(=O)O)C(=O)O)cc3)cc2c(=O)[nH]1,820,1300,
Cc1nc2ccc(CN(C)c3ccc(C(=O)N[C@@H](CCC(=O)O)C(=O)O)cc3)cc2c(=O)[nH]1,110,300,
CN(Cc1ccc2nc(CF)[nH]c(=O)c2c1)c1ccc(C(=O)N[C@@H](CCC(=O)O)C(=O)O)cc1,3,2920,
Cc1nc2ccc(CN(CCO)c3ccc(C(=O)N[C@@H](CCC(=O)O)C(=O)O)cc3)cc2c(=O)[nH]1,240,500,
C#CCN(Cc1ccc2nc(C(F)(F)F)[nH]c(=O)c2c1)c1ccc(C(=O)N[C@@H](CCC(=O)O)C(=O)O)cc1,> 100000,,
Cc1ccc2nc(CF)nc(O)c2c1,,,pKa [4]: < 2; pKa [3]: 8.5
O=C(O)CC[C@H](NC(=O)c1ccc(N(CCO)Cc2ccc3nc(CO)[nH]c(=O)c3c2)cc1)C(=O)O,14500,,
O=C(O)CC[C@H](NC(=O)c1ccc(N(CCF)Cc2ccc3nc(CO)[nH]c(=O)c3c2)cc1)C(=O)O,20000,,
COCCCN(Cc1ccc2nc(C)[nH]c(=O)c2c1)c1ccc(C(=O)N[C@@H](CCC(=O)O)C(=O)O)cc1,> 100000,12900,
Cc1nc2ccc(CN(CCCO)c3ccc(C(=O)N[C@@H](CCC(=O)O)C(=O)O)cc3)cc2c(=O)[nH]1,1240,540,
Cc1ccc2nc(C(F)(F)F)nc(O)c2c1,,,pKa [4]: < 2; pKa [3]: 5.9
C#CCN(Cc1ccc2nc(CSc3ncccn3)[nH]c(=O)c2c1)c1ccc(C(=O)N[C@@H](CCC(=O)O)C(=O)O)cc1,100000,,
CCN(Cc1ccc2nc(CF)[nH]c(=O)c2c1)c1ccc(C(=O)N[C@@H](CCC(=O)O)C(=O)O)cc1,700,,
CC(=O)CN(Cc1ccc2nc(C)[nH]c(=O)c2c1)c1ccc(C(=O)N[C@@H](CCC(=O)O)C(=O)O)cc1,1200,25000,
C=CCN(Cc1ccc2nc(CO)[nH]c(=O)c2c1)c1ccc(C(=O)N[C@@H](CCC(=O)O)C(=O)O)cc1,6600,,
CN(Cc1ccc2nc(CO)[nH]c(=O)c2c1)c1ccc(C(=O)N[C@@H](CCC(=O)O)C(=O)O)cc1,13000,,
Cc1ccc2nc(C)nc(O)c2c1,,,pKa [2]: 3.5; pKa [3]: 10.2
